# According to publication PMC4467461, “Small-molecule activation of SERCA2a SUMOylation for the treatment of heart failure” (Nature Communications, 2015):
# System: isolated adult cardiomyocytes
# Experiment: Cardiomyocyte contractility and calcium transient, video-based edge-detection system (IonOptix)
# Assay type: cell-based, Sprague–Dawley rats
# Description: Figure 1 N106 increases SERCA2a’s cellular activity and SUMOylation in adult cardiomyocytes. In-vitro characterization of activators of SERCA2a SUMOylation. Cell-based screening of small molecules identified one promising compound. Adult ventricular cardiomyocytes were isolated from Sprague–Dawley rats and treated with small molecules on dose-dependent manner for 24 h. DMSO-treated cardiomyocytes were used as a negative control. (a) Chemical structure of SERCA2a SUMOylation activator. N106, N-(4-methoxybenzo[d]thiazol-2-yl)-5-(4-methoxyphenyl)-1,3,4-oxadiazol-2-amine. (b-g) The effects of N106 compound in cardiomyocyte contractility and calcium transient. The dose-dependent effects of N106 compound presented on peak shortening, the time to maximal departure velocity, the time to maximal return velocity, calcium ratio, decay time constant (τ) and the time to 90% baseline (t90) fluorescence in cardiomyocytes were assessed using a video-based edge-detection system (IonOptix Inc.). n=25 cardiomyocytes from each three of hearts per condition. (h) The effects of N106 compound on the ATPase activity of SERCA2a. The ATPase activity were measured at 25 °C in 50 mM MOPS, 100 mM KCl, 5 mM MgCl2, 1 mM […] at pCa 5.0 by using a coupled enzyme system consisting of pyruvate kinase and lactate dehydrogenase, and monitoring the oxidation of the reduced form of NADH at […]. The enzyme activity was determined by using same set of cardiomyocytes. (i) The effect of N106 compound for the formation of SUMOylated SERCA2a was determined using the same set of cardiomyocytes. Endogenous SERCA2a SUMOylation was detected by immunoprecipitation with anti-SERCA2a and then western blotting with anti-SUMO-1 antibodies. The experiments shown are representative of three independent experiments with similar results. (j) The effect of N106 compound on global SUMOylation was measured by western blot analysis with an anti-SUMO-1 antibody in the same set of cardiomyocytes. The experiments shown are representative of three independent western blottings. Data are represented as mean±s.e.m. (n=3 mice hearts per each condition). Data are represented as mean±s.e.m. *P≤0.05; **P<0.001 (Student’s t-test) from DMSO control.
# Figure 2 Time-course experiments with N106 in isolated adult cardiomyocytes. (a–f) Adult ventricular cardiomyocytes were isolated from Sprague–Dawley rats and treated with 10 μM of N106 compound over a time course as indicated. The time course of the contractile response to N106 was determined as peak shortening (a), the time to maximal velocity of sarcomere shortening (b) and re-lengthening (c). The time-course changes in calcium kinetic parameters such as calcium transient (d), decay time constant (e) and the time to 90% baseline fluorescence in cardiomyocytes (f) were detected. n=25 cardiomyocytes from each three of hearts per condition. DMSO was used as vehicle control. The time courses of the ATPase activity of SERCA2a (g), level of SUMOylated SERCA2a (h) and level of SUMO-1 conjugates (i) were determined by using the same set of cardiomyocytes (two independent experiments). Data are represented as mean±s.e.m. *P≤0.05; **P<0.001 (Student’s t-test) from DMSO control.
# Ventricular heart muscle cells were isolated from 180∼250 g male Sprague–Dawley rats as described. The hearts were perfused sequentially with low-calcium buffer, enzyme solutions containing collagenases and proteases, and high-potassium solution. Next, the hearts were minced, filtered and resuspended in high-potassium solution. The cardiomyocytes were plated on laminin-coated plates and cultured in medium M199 (Life Technologies, CT, USA) containing proper supplements. […]
# [1] = screen of eight compounds, 10 μM, 24 h
structure (smiles),measurement,setting,value
"COc1ccc(-c2nnc(Nc3nc4c(OC)cccc4s3)o2)cc1 [Compound N106, N-(4-methoxybenzo[d]thiazol-2-yl)-5-(4-methoxyphenyl)-1,3,4-oxadiazol-2-amine]",inotropic effect in isolated cardiomyocytes,"10 μM, 24 h",positive inotropic effects
same,positive effect on cardiomyocytes contractility,at over 50 μM concentration,no longer observed
same,Calcium-transient amplitude,"dose–response, 10 nM, 24 h",0.18±0.01
same,"exponential decay of time constant, τ","dose–response, 10 nM, 24 h",0.20 ± 0.01 s
same,maximal velocities of cell contraction,"dose–response, 10 nM, 24 h",−1.93±0.08 μm s^−1
same,maximal velocities of cell relaxation,"dose–response, 10 nM, 24 h",1.76±0.08 μm s^−1
same,peak shortening,"dose–response, 10 nM, 24 h",7.63±0.48%
same,"time for 90% decay, t90","dose–response, 10 nM, 24 h",0.47 ± 0.02 s
same,Calcium-transient amplitude,"dose–response, 100 nM, 24 h",0.21±0.01
same,"exponential decay of time constant, τ","dose–response, 100 nM, 24 h",0.20 ± 0.01 s
same,maximal velocities of cell contraction,"dose–response, 100 nM, 24 h",−2.17±0.10 μm s^−1
same,maximal velocities of cell relaxation,"dose–response, 100 nM, 24 h",1.98±0.12 μm s^−1
same,peak shortening,"dose–response, 100 nM, 24 h",8.36±0.56%
same,"time for 90% decay, t90","dose–response, 100 nM, 24 h",0.44 ± 0.02 s
same,Calcium-transient amplitude,"dose–response, 10 μM, 24 h",0.19±0.00
same,"exponential decay of time constant, τ","dose–response, 10 μM, 24 h",0.16 ± 0.008 s
same,maximal velocities of cell contraction,"dose–response, 10 μM, 24 h",−2.30±0.19 μm s^−1
same,maximal velocities of cell relaxation,"dose–response, 10 μM, 24 h",1.99±0.15 μm s^−1
same,peak shortening,"dose–response, 10 μM, 24 h",9.10±0.52%
same,"time for 90% decay, t90","dose–response, 10 μM, 24 h",0.35 ± 0.006 s
same,peak shortening,[1],12.03±0.80%
same,transient calcium decay τ,[1],0.18 ± 0.02 s
same,calcium amplitude (ratio 360/380 nm),"time course, 10 μM, 10 min",0.19±0.01
same,maximal velocities of cell contraction,"time course, 10 μM, 10 min",−1.97±0.04 μm s^−1
same,maximal velocities of cell relaxation,"time course, 10 μM, 10 min",1.12±0.11 μm s^−1
same,peak shortening,"time course, 10 μM, 10 min",9.65±0.27%
same,t90,"time course, 10 μM, 10 min",0.40 ± 0.03 s
same,τ,"time course, 10 μM, 10 min",0.17 ± 0.02 s
same,maximal velocities of cell contraction,"time course, 10 μM, 1 h",−1.92±0.09 μm s^−1
same,maximal velocities of cell relaxation,"time course, 10 μM, 1 h",1.67±0.15 μm s^−1
same,peak shortening,"time course, 10 μM, 1 h",8.60±0.23%
same,t90,"time course, 10 μM, 1 h",0.35 ± 0.01 s
same,τ,"time course, 10 μM, 1 h",0.14 ± 0.02 s
same,calcium amplitude (ratio 360/380 nm),"time course, 10 μM, 1 h (P=0.17)",0.17±0.01
same,calcium amplitude (ratio 360/380 nm),"time course, 10 μM, 24 h",0.18±0.008
same,maximal velocities of cell contraction,"time course, 10 μM, 24 h",−2.3±0.19 μm s^−1
same,maximal velocities of cell relaxation,"time course, 10 μM, 24 h",1.99±0.15 μm s^−1
same,peak shortening,"time course, 10 μM, 24 h",8.90±0.38%
same,t90,"time course, 10 μM, 24 h",0.35 ± 0.006 s
same,τ,"time course, 10 μM, 24 h",0.16 ± 0.008 s
